For one assay, the target named is Cannabinoid receptor 1 (Homo sapiens, UniProt P21554). Briefly: (§1) cAMP Assay: CHO cells expressing human CB1 or CB2 receptors are seeded 17-24 hours prior to the experiment 50.000 cells per well in a black 96 well plate with flat clear bottom (Corning Costar #3904) in DMEM (Invitrogen No. 31331), 1xHT supplement, with 10% fetal calf serum and incubated at 5% CO2 and 37° C. in a humidified incubator. The growth medium was exchanged with Krebs Ringer Bicarbonate buffer with 1 mM IBMX and incubated at 30° C. for 30 min. Compounds were added to a final assay volume of 100 ul and incubated for 30 min at 30° C. Using the cAMP-Nano-TRF detection kit the assay (Roche Diagnostics) was stopped by the addition of 50 ul lysis reagent (Tris, NaCl, 1.5% Triton X100, 2.5% NP40, 10% NaN3) and 50 ul detection solutions (20 uM mAb Alexa700-cAMP 1:1, and 48 uM Ruthenium-2-AHA-cAMP) and shaken for 2 h at room temperature. The time-resolved energy transfer is measured by a TRF reader (Evotec Technologies GmbH), equipped with a ND:YAG laser as excitation source. The plate is measured twice with the excitation at 355 nm and at the emission with a delay of 100 ns and a gate of 100 ns, total exposure time 10 s at 730 (bandwidth 30 nm) or 645 nm (bandwidth 75 nm), respectively. The FRET signal is calculated as follows: FRET=T730-Alexa730-P (T645-B645) with P=Ru730-B730/Ru645-B645, where T730 is the test well measured at […], T645 is the test well measured at 645 nm, B730 and B645 are the buffer controls at 730 nm and 645 nm, respectively. cAMP content is determined from the function of a standard curve spanning from 10 uM to 0.13 nM cAMP. EC50 values were determined using Activity Base analysis (ID Business Solution, Limited). The EC50 values for a wide range of cannabinoid agonists generated from this assay were in agreement with the values published in the scientific literature.
Cannabinoid receptor 1, sequence (P21554 whole entry): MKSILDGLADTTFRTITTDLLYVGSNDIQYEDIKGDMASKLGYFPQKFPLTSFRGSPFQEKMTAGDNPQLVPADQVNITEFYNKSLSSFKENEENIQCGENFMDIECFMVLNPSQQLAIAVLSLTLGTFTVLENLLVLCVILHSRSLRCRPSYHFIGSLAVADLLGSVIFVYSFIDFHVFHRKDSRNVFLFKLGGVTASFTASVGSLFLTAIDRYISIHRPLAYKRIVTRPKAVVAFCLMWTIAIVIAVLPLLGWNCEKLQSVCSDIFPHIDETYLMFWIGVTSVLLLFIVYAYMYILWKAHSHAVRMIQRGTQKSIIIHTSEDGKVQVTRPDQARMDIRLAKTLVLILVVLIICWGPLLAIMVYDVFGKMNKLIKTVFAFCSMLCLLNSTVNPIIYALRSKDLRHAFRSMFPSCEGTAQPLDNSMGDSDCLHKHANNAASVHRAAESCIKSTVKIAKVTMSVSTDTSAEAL

In a further assay the target is Cannabinoid receptor 2 (Homo sapiens, UniProt P34972). Described as §1.
Cannabinoid receptor 2, sequence (P34972 whole entry): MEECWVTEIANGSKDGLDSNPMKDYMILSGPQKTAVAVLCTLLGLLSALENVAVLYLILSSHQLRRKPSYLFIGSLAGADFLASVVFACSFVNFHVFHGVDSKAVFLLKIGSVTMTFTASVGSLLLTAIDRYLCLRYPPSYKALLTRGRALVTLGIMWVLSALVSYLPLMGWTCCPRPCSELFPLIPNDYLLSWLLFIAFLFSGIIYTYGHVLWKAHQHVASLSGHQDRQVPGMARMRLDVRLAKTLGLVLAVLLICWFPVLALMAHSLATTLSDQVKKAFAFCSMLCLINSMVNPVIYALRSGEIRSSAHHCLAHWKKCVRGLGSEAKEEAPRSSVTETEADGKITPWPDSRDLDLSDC

SMILES strings stand for the structures. pEC50: −log10 of the molar value. Where only a bound is given, the exact number is not on record here.

What is called pEC50 is the negative decadic logarithm of the EC50, by convention in mol/L. On to `CC1(C)CCCN1C(=O)c1cnc(C2CC2)c(OCC2CC2)n1`, for which the negative logarithm of the EC50 (pEC50) was below 5.00 at Cannabinoid receptor 1 and 7.95 at Cannabinoid receptor 2.
As for `NC(=O)[C@@H]1CC(F)(F)CN1C(=O)c1cnc(C2CC2)c(OCC2CC2)n1`, the figures for the pEC50 on Cannabinoid receptor 1 and on Cannabinoid receptor 2 were below 5.00 and 7.63, respectively.
Consider `CCN(C(=O)c1cnc(N2CC(F)(F)C2)c(OCC2CC2)n1)C(C)C`, for which the pEC50 at Cannabinoid receptor 1 is below 5.00; at Cannabinoid receptor 2, 7.70.

The values are drawn from ChEMBL document CHEMBL5725277, “Pyrazine derivatives as CB2 receptor agonists” (2016).
